The record followed here is patent publication US8217071B2, “Use of inhibitors of the degradation of p27, in particular Argyrin and derivatives thereof, for the treatment of proliferative diseases” (Helmholtz Zentrum für Infektionsforschung GmbH, priority 2007, dated 2012).

Experiment [1] deals with T1, purified human 20S proteasome (Homo sapiens, UniProt P28072+P28074+Q99436).
T1 construct: using erythrocyte-derived 20S proteasome (Biomol International, #LP PW8720); purchased Biomol International #LP PW8720; host or cells: human erythrocytes
Put plainly: Proteasome assay with purified 20S proteasome, fluorogenic peptide substrates. The format is biochemical. The following applies: purified human erythrocyte derived 20S proteasome. On the procedure:
(§1) The expression levels of p27^kip1 were determined at the indicated timepoints by western blotting and normalized against actin expression which was used as an internal control.
Proteasome assays with purified 20S proteasome were performed as previously described (Lightcap, E. S. et al. Proteasome inhibition measurements: clinical application. Clin Chem 46, 673-83 (2000)) using erythrocyte-derived 20S proteasome (Biomol International, #LP PW8720) and fluorometric substrates Succ-LLVY-AMC, BZ-VGR-AMC and Z-Lle-AMC (Biomol International, LP PW9905) as probes according to the manufacturers instructions. Proteasome extraction from cells and tumour sections was done as previously described (Crawford, L. J. et al. Comparative selectivity and specificity of the proteasome inhibitors BzLLLCOCHO, PS-341, and MG-132. Cancer Res 66, 6379-86 (2006)). Briefly cells (MEF or MCF-7) or tissue sample homogenate (tumour sections) were re-suspended in 1 mL ATP/DTT lysis buffer (10 mmol/L Tris-HCl (pH 7.8), 5 mmol/L ATP, 0.5 mmol/L DTT, 5 mmol/L MgCl2), and incubated on ice for 10 minutes, followed by sonication for 15 seconds. […] Protein concentration of the samples was measured using a coomassie protein assay (Pierce, Rockford, Ill.).

Another experiment has as its system p27^kip1. In words: p27^kip1 half life in cycloheximide treated cells. Format: cell-based, human. The following applies: HeLa and SW480 cells, cycloheximide 25 μg/mL. On the procedure:
The inventors therefore conclude that Argyrin A prevents the degradation of p27 due to its proteasome inhibitory activity in vivo and induces apoptosis or G1 arrest in a variety of different tumour cell lines.
as §1

Numbered stars: 1 amine (or outer) side, 2 acyl side, 3 side chain; on linkers, the order of the positions; unused ones are H or OH. Square brackets hold non-standard residues; d marks the D form. Peptide text beside a SMILES is read from it. dAla(ψthiazole) = C[C@@H](N[*:1])c1nc(C(=O)[*:2])cs1; Trp(4-OMe) = COc1cccc2[nH]cc(C[C@H](N)C(=O)O)c12; Dha = C=C(N)C(=O)O; Sar = CNCC(=O)O

Turning to `C=C1NC(=O)[C@@H](C)NC(=O)CNC(=O)[C@H](Cc2c[nH]c3cccc(OC)c23)NC(=O)[C@H](Cc2c[nH]c3ccccc23)NC(=O)c2csc(n2)[C@@H](C)NC(=O)CN(C)C1=O` [Argyrin A] (cyclo(W[Trp(4-OMe)]G[dA][Dha][Sar][dAla(ψthiazole)])), the “caspase, trypsin and chymotrypsin like proteasome activities” value in experiment [1] was “dose dependent inhibition”. Further, the p27 turnover result in the experiment on p27^kip1 is given as “complete block”.
